Experimental data taken from patent US8980901B2, “5-fluoro-3-phenyl-2[1-(9H-purin-6-ylamino)propyl]-3H-quinazolin-4-one and 6-fluoro-3-phenyl-2-[1-(9H-purin-6-ylamino)ethyl]-3H-quinazolin-4-one as inhibitors of human phosphatidylinositol 3-kinase delta” (Icos Corporation, priority 2004, dated 2015).
pIC50: −log10 of the molar value.

Tests used:
osteoclasts = experiment: Osteoclast function (pit depth on dentine slices); assay type: cell-based, mouse; conditions: PI3K inhibitors 100 nM, 72 hr
Protocol: To analyze the effect of the present PI3Kδ inhibitor compounds on osteoclasts, mouse bone marrow cells are isolated and differentiated to osteoclasts by treating the cells with Macrophage Colony Stimulating Factor^−1 (mCSF^−1) and Osteoprotegerin Ligand (OPGL) in serum-containing medium (αMEM with 10% heat-inactivated FBS; Sigma) for 3 days. On day four, when the osteoclasts had developed, the medium is removed and cells are harvested. The osteoclasts are plated on dentine slices at 10^5 cells/well in growth medium, i.e., αMEM containing 1% serum and 2% BSA with […] OPGL and 10 ng/mL mCSF^−1. After 3 hr, the medium is changed to 1% serum and 1% BSA, with or without osteopontin (25 μg/mL) and the PI3K inhibitors (100 nM). The medium is changed every 24 hours with fresh osteopontin and the inhibitors. At 72 hr, the medium is removed, and the dentine surfaces are washed with water to remove cell debris and stained with acid hematoxylin. Excess stain is washed and the pit depths are quantitated using confocal microscopy.

Class I PI 3-kinases = conditions: read-out: IC50 values against each of these PI 3-kinases; cited from earlier work
neutrophil = conditions: cited from earlier work

Compound	inhibition of osteoclast activity (osteoclasts)	pIC50 (Class I PI 3-kinases)	neutrophil migration (neutrophil)	superoxide release (neutrophil)
O=c1cc(N2CCOCC2)oc2c(-c3ccccc3)cccc12 [LY294002]	inhibited osteoclast activity	~6.00	block	block
COC[C@H]1OC(=O)c2coc3c2[C@@]1(C)C1=C(C3=O)[C@@H]2CCC(=O)[C@@]2(C)C[C@H]1OC(C)=O [wortmannin]	inhibited osteoclast activity		block	block
